According to patent US20250049948A1, “NOVEL IONIZABLE LIPIDS AND LIPID NANOPARTICLES AND METHODS OF USING THE SAME” (Sail Biomedicines, Inc., priority 2021, published 2025):
Where “and” joins values, the source holds several entries; their conditions need not be identical. Equal entries are not always repeated.

Legend:
Balb/c mice [1] = assay: In-vivo bioluminescent imaging of LNP compositions (Example 3); details: for Bioluminescence, Liver / Bioluminescence, Lung / Bioluminescence, Pancreas / Bioluminescence, Spleen / Bioluminescence, Whole body: LNP with 5 μg Fluc+5 μg EPO mRNA intravenously, 4-6 hours post-dose, two values per compound; for Bioluminescence, Whole body: FIG. 1: average radiance (p/s/cm2/sr); for Organ selectivity of delivery: bioluminescent imaging in mice, Example 3
Text: C12-200 is commercially available ionizable lipid and has a chemical name of 1,1′-((2-(4-(2-((2-(bis(2-hydroxydodecyl)amino)ethyl)(2-hydroxydodecyl) amino)ethyl)piperazin-1-yl)ethyl)azanediyl)bis(dodecan-2-ol). A composition composed of ionizable lipid:structural lipid:sterol:EG-lipid (C12-200:DOPE:cholesterol:14:0 PEG2000 PE) at a molar ratio of 35:16:46.5:2.5, respectively. Lipids were solubilized in ethanol. These lipids were mixed at the above-indicated molar ratios and diluted in ethanol (organic phase) to 5.5 mM total lipid concentration. The mRNA solution (aqueous phase) was prepared with RNAse-free water and 100 mM citrate buffer pH 3 for a final concentration of 50 mM citrate buffer. The ionizable lipid to mRNA N:P ratio maintained at 15:1.
All other compositions (i.e., compositions of MC3 (a commercially available ionizable lipid having a chemical name of (6Z,9Z,28Z,31Z)-heptatriacont-6,9,28,31-tetraene-19-yl 4-(dimethylamino)butanoate, and compositions of novel ionizable lipids 7669, 7671, 7668, […], 7650) were composed of ionizable lipid:structural lipid:sterol:PEG-lipid (SDA lipid #:DSPC:cholesterol:14:0 PEG2000 PE) at a molar ratio of 50:38.5:10:1.5, respectively. Lipids were solubilized in ethanol. Compositions were then handled as above, except the formulations were maintained at ionizable lipid to mRNA N:P ratio of 6:1. The lipid mix and mRNA solution were mixed at a 1:3 ratio by volume, respectively, on a NanoAssemblr Ignite (Precision Nanosystems) at a total flow rate of 9 mL/min. Resulting compositions were then loaded into Slide-A-Lyzer G2 dialysis cassettes (10 k MWCO) and dialyzed in 200 times sample volume of 1×PBS for 4 hrs at room temp with gentle stirring. The PBS was refreshed, and the compositions were further dialyzed for at least 14 hrs at 4° C. with gentle stirring. The dialyzed compositions were then collected and concentrated by centrifugation at 2000×g using Amicon Ultra centrifugation filters (100 k MWCO). Concentrated particles were characterized for size, polydispersity, and particle concentration using Zetasizer Ultra (Malvern Panalytical) and for mRNA encapsulation efficiency using Quant-iT RiboGreen RNA Assay Kit (ThermoFisher Scientific).
8-9 week old female Balb/c mice were utilized for bioluminescence-based ionizable lipid screening efforts. Mice were obtained from Jackson Laboratories (JAX Stock: 000651) and allowed to acclimate for one week prior to manipulations. Animals were placed under a heat lamp for a few minutes before introducing them to a restraining chamber. The tail was wiped with alcohol pads (Fisher Scientific) and 100 μL of a lipid nanoparticle composition described above containing 10 μg total mRNA (5 μg Fluc+5 μg EPO) was injected intravenously using a 29G insulin syringe (Covidien). Any resulting bleeding was stemmed using a sterile gauze pad (Fisher Scientific) and animals were placed back into their home cage. 4-6 hours post-dose, animals were injected with 200 μL of 15 mg/mL D-Luciferin (GoldBio) and placed in an isoflurane induction chamber set to deliver 2.5% isoflurane delivered at an oxygen flow rate of 1-2 liters per min. After 5 minutes of isoflurane exposure, mice were placed in set nose cones inside the IVIS Lumina LT imager (PerkinElmer). LivingImage software was utilized for imaging. Whole body bio-luminescence was captured at auto-exposure after which animals were removed from the IVIS and placed into a CO2 chamber for euthanasia. Cardiac puncture was performed on each animal after placing it in dorsal recumbency, and blood collection was performed using a 25G insulin syringe (BD). Blood was collected in Lithium-Heparin coated tubes (Fisher Scientific) and immediately placed on ice. Once all blood samples were collected, tubes were spun at 2000G for 10 minutes using a tabletop centrifuge and plasma was aliquoted into individual Eppendorf tubes (Fisher Scientific) and stored at −80 C for subsequent EPO quantification. […]

[2] = mRNA encapsulation efficiency, Quant-iT RiboGreen RNA Assay; format: physicochemical
Method: (§1) For each LNP composition, the lipid mix and mRNA solution were mixed at a 1:3 ratio by volume, respectively, on a NanoAssemblr Ignite (Precision Nanosystems) at a total flow rate of 9 mL/min. The resulting compositions were then loaded into Slide-A-Lyzer G2 dialysis cassettes (10 k MWCO) and dialyzed in 200 times sample volume of 1×PBS for 2 hours at room temperature with gentle stirring. The PBS was refreshed, and the compositions were further dialyzed for at least 14 hours at 4° C. with gentle stirring. The dialyzed compositions were then collected and concentrated by centrifugation at 3000×g using Amicon Ultra centrifugation filters (100 k MWCO). The concentrated particles were characterized for size, polydispersity, and particle concentration using Zetasizer Ultra (Malvern Panalytical) and for mRNA encapsulation efficiency using Quant-iT RiboGreen RNA Assay Kit (ThermoFisher Scientific).

Balb/c mice [3] = assay: In-vivo bioluminescent imaging of LNP compositions (Example 6); details: mRNA dose 5 μg FLUC (CRE/FLUC 1:1 LNP); for Bioluminescence (IV) Liver / Bioluminescence (IV) Lung / Bioluminescence (IV) Spleen / Bioluminescence (IV) Whole Body: 4-6 hours post-dose; for Spleen: Liver Ratio: intravenous
[4] = LNP size and polydispersity, Zetasizer Ultra; format: physicochemical
Method: as §1

| SMILES | Bioluminescence, Liver (Balb/c mice [1]) | Bioluminescence, Lung (Balb/c mice [1]) | Bioluminescence, Pancreas (Balb/c mice [1]) | Bioluminescence, Spleen (Balb/c mice [1]) | Bioluminescence, Whole body (Balb/c mice [1]) | Organ selectivity of delivery (Balb/c mice [1]) | further results |
| --- | --- | --- | --- | --- | --- | --- | --- |
| CCCCCCC(CCCCCC)CCCOC(=O)CCCCCCCN(CCCCCCCC(=O)OCCCC(CCCCCC)CCCCCC)C(=O)CCN1CCCC1 [Compound 7671, 4-hexyldecyl 8-[[8-(4-hexyldecoxy)-8-oxo-octyl]-(3-pyrrolidin-1-ylpropanoyl)amino]octanoate] | 296000 and 184000 | 215000 and 180000 | 141000 and 185000 | 422000 and 574000 | 780000 and 772000 | selectively targeted the pancreas and lung over the whole body, liver, or spleen |  |
| CCCCCC(CCCCC)CCCOC(=O)CCCCCCCN(CCCCCCCC(=O)OCCCC(CCCCC)CCCCC)CCCCN(C)C [Compound 2129, bis(4-pentylnonyl) 8,8′-((4-(dimethylamino)butyl)azanediyl) dioctanoate] |  |  |  |  |  |  | % EE ([2]; LNP with CRE/FLUC 1:1 mRNA): 97.0%; Bioluminescence (IV) Liver (Balb/c mice [3]): 1.4E + 05; Bioluminescence (IV) Lung (Balb/c mice [3]): 2.1E + 03; Bioluminescence (IV) Spleen (Balb/c mice [3]): 9.2E + 03; Bioluminescence (IV) Whole Body (Balb/c mice [3]): 1.9E + 04; Spleen: Liver Ratio (Balb/c mice [3]): 0.066; PDI ([4]; LNP with CRE/FLUC 1:1 mRNA): 0.07; Size (nm) ([4]; LNP with CRE/FLUC 1:1 mRNA): 81.1 nm |
| CCCCCCC(CCCCCC)CCCOC(=O)CCCCCN(CCCCCC(=O)OCCCC(CCCCCC)CCCCCC)C(=O)CCCN(C)C [Compound 2134, bis(4-hexyldecyl) 6,6′-((4-(dimethylamino)butanoyl)azanediyl) dihexanoate] |  |  |  |  |  |  | % EE ([2]; LNP with CRE/FLUC 1:1 mRNA): 98.3%; % EE ([2]; LNP with EGFP mRNA): 98.3%; Bioluminescence (IV) Liver (Balb/c mice [3]): 7.5E + 04; Bioluminescence (IV) Lung (Balb/c mice [3]): 1.4E + 03; Bioluminescence (IV) Spleen (Balb/c mice [3]): 4.3E + 03; Bioluminescence (IV) Whole Body (Balb/c mice [3]): 5.4E + 03; Spleen: Liver Ratio (Balb/c mice [3]): 0.063; PDI ([4]; LNP with CRE/FLUC 1:1 mRNA): 0.11; Size (nm) ([4]; LNP with CRE/FLUC 1:1 mRNA): 92.9 nm; PDI ([4]; LNP with EGFP mRNA): 0.20; Size (nm) ([4]; LNP with EGFP mRNA): 107.1 nm |
| CCCCCCC(CCCCCC)CCCOC(=O)CCCCCCCN(CCCCCCCC(=O)OCCCC(CCCCCC)CCCCCC)CCCCN(C)C [Compound 7650, 4-hexyldecyl 8-[4-(dimethylamino)butyl-[8-(4-hexyldecoxy)-8-oxo-octyl]amino]octanoate] | 56300 and 83100 | 150000 and 138000 | 127000 and 87200 | 82400 and 108000 | 12100 and 10900 | selectively targeted the pancreas and lung over the whole body, liver, or spleen |  |
| CCCCCCCCCCC(O)CN(CCN1CCN(CCN(CC(O)CCCCCCCCCC)CC(O)CCCCCCCCCC)CC1)CCN(CC(O)CCCCCCCCCC)CC(O)CCCCCCCCCC (centres unmarked) [Compound C12-200, 1,1′-((2-(4-(2-((2-(bis(2-hydroxydodecyl)amino)ethyl)(2-hydroxydodecyl)amino)ethyl)piperazin-1-yl)ethyl)azanediyl)bis(dodecan-2-ol), reference compound] | 92300000 and 69700000 |  | 236000 and 216000 | 1280000 and 1390000 |  |  |  |
| CCCCCCC(CCCCCC)CCCOC(=O)CCCCCCCN(CCO)CCCCCCCC(=O)OCCCC(CCCCCC)CCCCCC [Compound 2136, bis(4-hexyldecyl) 8,8′-((2-hydroxyethyl)azanediyl)dioctanoate] |  |  |  |  |  |  | % EE ([2]; LNP with EGFP mRNA): 95.5%; PDI ([4]; LNP with EGFP mRNA): 0.04; Size (nm) ([4]; LNP with EGFP mRNA): 77.5 nm |
| CCCCCC(CCCCC)CCCN(C)C(=O)CCCCCCCN(CCCCCCCC(=O)N(C)CCCC(CCCCC)CCCCC)C(=O)CCN1CCCC1 [Compound 2242, N-methyl-8-(N-(8-(methyl(4-pentylnonyl)amino)-8-oxooctyl)-3-(pyrrolidin-1-yl)propanamido)-N-(4-pentylnonyl)octanamide] |  |  |  |  |  |  | % EE ([2]; LNP with FLUC/EPO 1:1 mRNA): 89.5%; PDI ([4]; LNP with FLUC/EPO 1:1 mRNA): 0.079; Size (nm) ([4]; LNP with FLUC/EPO 1:1 mRNA): 154.2 nm |
| CCCCCCC(CCCCCC)CCCOC(=O)CCCCCCCN(CCCCCCCC(=O)OCCCC(CCCCCC)CCCCCC)C(=O)CCCN(C)C [Compound 7668, 4-hexyldecyl 8-[4-(dimethylamino)butanoyl-[8-(4-hexyldecoxy)-8-oxo-octyl]amino]octanoate] |  |  |  | 56400 and 60500 | 48500 and 26900 | selectively targeted the pancreas and lung over the whole body, liver, or spleen |  |
| CCCCCCC(CCCCCC)CCCOC(=O)CCCCCCCN(CCCCCCCC(=O)OCCCC(CCCCCC)CCCCCC)CCOCCOCCN(C)C [Compound 7669, 4-hexyldecyl 8-[2-[2-[2-(dimethylamino)ethoxy]ethoxy]ethyl-[8-(4-hexyldecoxy)-8-oxo-octyl]amino]octanoate] | 92400 and 129000 | 73000 and 70100 | 106000 and 87800 | 112000 and 91700 | 5120 and 2920 | selectively targeted the pancreas and lung over the whole body, liver, or spleen |  |
| CCCCC/C=C\C/C=C\CCCCCCCCC(CCCCCCCC/C=C\C/C=C\CCCCC)OC(=O)CCCN(C)C [MC3, (6Z,9Z,28Z,31Z)-heptatriacont-6,9,28,31-tetraene-19-yl 4-(dimethylamino)butanoate, reference compound] | 22000000 and 20300000 | 300000 and 258000 | 192000 and 232000 | 1660000 and 2060000 |  |  |  |
| CCCCCCC(CCCCCC)CCCOC(=O)CCCCCCCN(CCCCCCCC(=O)OCCCC(CCCCCC)CCCCCC)CCC(O)CN(C)C (centres unmarked) [Compound 7676, 4-hexyldecyl 8-[[4-(dimethylamino)-3-hydroxy-butyl]-[8-(4-hexyldecoxy)-8-oxo-octyl]amino]octanoate] | 183000 and 161000 | 262000 and 170000 | 177000 and 220000 | 255000 and 259000 | 50900 and 30400 | selectively targeted the pancreas and lung over the whole body, liver, or spleen |  |
| CCCCCC(CCCCC)CCCOC(=O)CCCCCCCN(CCO)CCCCCCCC(=O)OCCCC(CCCCC)CCCCC [Compound 2135, bis(4-pentylnonyl) 8,8′-((2-hydroxyethyl)azanediyl)dioctanoate] |  |  |  |  |  |  | % EE ([2]; LNP with EGFP mRNA): 96.2%; PDI ([4]; LNP with EGFP mRNA): 0.04; Size (nm) ([4]; LNP with EGFP mRNA): 81.8 nm |
